Test: In vitro absorption of foam/gas in fresh human venous blood
Assay type: in vitro ADME
Conditions: 0.5 ml aliquot in 20 ml blood
Procedure: In vitro experiments were conducted to determine the absorption of foam made with different gases in fresh human venous blood.
A 20 ml polypropylene syringe barrel was prepared by puncturing its side wall with a relatively large hypodermic needle to make a hole approximately 1 mm in diameter. This hole was then covered by securing a piece of clear flexible vinyl sheet over it with clear adhesive tape. A small magnetic stirrer element was introduced into the syringe barrel and the plunger then replaced. 20 ml of human venous blood was then with withdrawn in the usual manner from a human subject using the specially prepared syringe fitted with a hypodermic needle.
The hypodermic needle was removed and the syringe then placed on a magnetic stirrer unit so that the magnetic element in the syringe thoroughly agitated the blood. The Luer nozzle of the syringe was then connected to a 50 cm piece of manometer tubing which was arranged horizontally and left open at one end. The manometer tubing was secured against a scale.
A 0.5 ml measuring syringe with a fine pre-fitted needle was then filled with foam made from 1% polidocanol solution and air. The density of the foam was 0.13 g/ml (±0.03 g/ml), the liquid component making up approximately 13% of the total volume of foam (±3%).
The needle of the 0.5 ml syringe was then introduced through the vinyl sheet on the side wall of the 20 ml syringe. […] The 0.5 ml aliquot of foam was then injected quickly and simultaneously a timer started (t0). As the foam displaced blood in the 20 ml syringe, the column of blood from the 20 ml syringe was displaced into the manometer tubing and the distance along the tubing reached by the distal end of the blood column was noted against the scale. The scale itself comprised spaced marker lines equally spaced at about 1 cm intervals. It was determined that a distance of 45 intervals on this scale corresponded to an internal volume of in the manometer tubing of approximately 0.5 ml.
As the gas in the foam started to be absorbed by the blood, the blood in the manometer tubing started to recede back towards the syringe. After the column appeared to have stopped moving, the timer was stopped (tF). The position of the distal end was again noted.
In this experiment, the air foam test was only observed for a few minutes after tF. However, further experiments have been conducted by the inventors, the results of which are not formally recorded here, involving foam with a percentage of nitrogen. A 20 ml syringe of fresh human venous blood, as in the above experiments, was injected with a 0.5 ml aliquot of a foam containing a percentage of nitrogen. The contents of the syringe were agitated as above and a period of 24 hours allowed to elapse.

Absorbed volume at tF: 0.46 mL
Unabsorbed gas %: 8%
Unabsorbed gas ml: 0.04 mL
tF (time until blood column stopped moving): 140 s
SMILES: O=O [Oxygen, oxygen]
